Data on 14 compounds can be found in patent US8980830B2 (priority 2007, dated 2015).

Bridge positions count the residues as written; N and C are the ends. Square brackets hold non-standard residues; d marks the D form. Side chains are listed from the residue outwards. Ends that are not written are not given here. Peptide text beside a SMILES is read from it. PhLac = O=C(O)[C@@H](O)Cc1ccccc1

The nature of data set [1]: Glucagon solubility assay. The settings on record: Table 10.
Data set [2] addresses T1, Glucagon Receptor (Homo sapiens, UniProt P47871). Put plainly: Glucagon receptor binding assay (scintillation proximity competition binding).
Data set [3] has as its target T1, Glucagon Receptor. Put plainly: cAMP inhibition: antagonism of glucagon-induced cAMP at glucagon receptor. On the set-up: expressed in transfected cells; host or cells: HEK293. In kind it is cell-based.
For the next data set, the target named is GLP-1 Receptor (Homo sapiens, UniProt P43220). Put plainly: Functional assay, cAMP induction (luciferase reporter, HEK293) at GLP-1 receptor. In kind it is cell-based.
Chain of GLP-1 Receptor (P43220 24-463): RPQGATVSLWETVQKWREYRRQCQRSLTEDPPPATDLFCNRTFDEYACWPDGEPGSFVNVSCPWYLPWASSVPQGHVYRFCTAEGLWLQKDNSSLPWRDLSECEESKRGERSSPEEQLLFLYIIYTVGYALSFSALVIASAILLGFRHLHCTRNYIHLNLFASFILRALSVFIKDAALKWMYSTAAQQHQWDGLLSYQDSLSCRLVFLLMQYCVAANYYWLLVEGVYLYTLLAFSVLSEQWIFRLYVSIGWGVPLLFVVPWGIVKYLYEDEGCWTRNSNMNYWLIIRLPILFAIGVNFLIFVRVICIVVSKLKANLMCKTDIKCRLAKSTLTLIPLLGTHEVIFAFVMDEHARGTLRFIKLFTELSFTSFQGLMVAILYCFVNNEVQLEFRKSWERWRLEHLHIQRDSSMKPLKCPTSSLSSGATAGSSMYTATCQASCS
[4] abbreviates: read-out: IC50 (nM) (Receptor binding), Table 12.
Setting [5] is: Table 7, average ±STD, at least three experiments.
Where [6] appears, read: Glucagon antagonism IC50 (nM, inhibit 0.2-0.8 nM glucagon), Table 16, combined results of three assays.
Setting [7] is: GLP-1 agonism EC50 (nM), Table 16.

One may read the EC50 as the concentration needed to bring the measured effect to its halfway point.

T1 sequence (P47871 26-477): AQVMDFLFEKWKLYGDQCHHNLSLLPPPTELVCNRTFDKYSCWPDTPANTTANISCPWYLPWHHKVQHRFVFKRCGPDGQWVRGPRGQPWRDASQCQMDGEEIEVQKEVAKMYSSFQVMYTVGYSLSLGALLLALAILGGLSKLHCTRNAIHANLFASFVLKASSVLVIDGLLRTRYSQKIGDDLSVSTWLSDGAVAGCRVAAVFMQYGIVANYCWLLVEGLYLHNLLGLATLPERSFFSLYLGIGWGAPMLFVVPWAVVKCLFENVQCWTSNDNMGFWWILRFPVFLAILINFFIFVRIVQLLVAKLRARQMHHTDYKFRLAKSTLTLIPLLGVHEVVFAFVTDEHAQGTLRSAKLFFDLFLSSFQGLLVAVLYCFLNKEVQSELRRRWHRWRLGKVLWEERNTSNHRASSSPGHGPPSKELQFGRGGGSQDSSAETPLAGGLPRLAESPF

As to `CSCC[C@H](NC(=O)[C@H](CC(C)C)NC(=O)[C@H](Cc1c[nH]c2ccccc12)NC(=O)[C@H](CCC(N)=O)NC(=O)[C@@H](NC(=O)[C@H](Cc1ccccc1)NC(=O)[C@H](CC(=O)O)NC(=O)[C@H](CCC(N)=O)NC(=O)[C@H](C)NC(=O)[C@H](CCCNC(=N)N)NC(=O)[C@H](CCCNC(=N)N)NC(=O)[C@H](CO)NC(=O)[C@H](CC(=O)O)NC(=O)[C@H](CC(C)C)NC(=O)[C@H](Cc1ccc(O)cc1)NC(=O)[C@H](CCCCN)NC(=O)[C@H](CO)NC(=O)[C@H](Cc1ccc(O)cc1)NC(=O)[C@H](CCC(=O)O)NC(=O)[C@H](CO)NC(=O)[C@@H](NC(=O)[C@@H](O)Cc1ccccc1)[C@@H](C)O)C(C)C)C(=O)N[C@@H](CC(N)=O)C(=O)N[C@H](C(=O)NCC(=O)N1CCC[C@H]1C(=O)N[C@@H](CO)C(=O)N[C@@H](CO)C(=O)NCC(=O)N[C@@H](C)C(=O)N1CCC[C@H]1C(=O)N1CCC[C@H]1C(=O)N1CCC[C@H]1C(=O)N[C@@H](CO)C(N)=O)[C@@H](C)O` [[PLA^6, E^9]Glucagon (aa6-29 + CEX)-NH2] (H-[PhLac]TSEYSKYLDSRRAQDFVQWLMNTGPSSGAPPPS-NH2), the “Solubility (%, pH 6-8)” value in data set [1] was 16%.
As for “[E^9, C^11(20kDaPEG)]Glucagon(aa6-29)-NH2 (FTSEYC(PEG 20 kDa)KYLDSRRAQDFVQWLMNT-NH2)”, the IC50 with Glucagon Receptor [2] (setting [4]) was greater than 1000 nM. In addition, the “IC50 (nM) (cAMP, inhibit 0.2 mM Glucagon)” value in the data set with Glucagon Receptor [3] (Table 12) was “no antagonism”.
`CSCC[C@H](NC(=O)[C@H](CC(C)C)NC(=O)[C@H](Cc1c[nH]c2ccccc12)NC(=O)[C@H](CCC(N)=O)NC(=O)[C@@H](NC(=O)[C@H](Cc1ccccc1)NC(=O)[C@H](CC(=O)O)NC(=O)[C@H](CCC(N)=O)NC(=O)[C@H](C)NC(=O)[C@H](CCCNC(=N)N)NC(=O)[C@H](CCCNC(=N)N)NC(=O)[C@H](CO)NC(=O)[C@H](CC(=O)O)NC(=O)[C@H](CC(C)C)NC(=O)[C@H](Cc1ccc(O)cc1)NC(=O)[C@H](CCCCN)NC(=O)[C@H](CO)NC(=O)[C@H](Cc1ccc(O)cc1)NC(=O)[C@H](CC(=O)O)NC(=O)[C@H](CO)NC(=O)[C@@H](NC(=O)[C@@H](O)Cc1ccccc1)[C@@H](C)O)C(C)C)C(=O)N[C@@H](CC(N)=O)C(=O)N[C@H](C(N)=O)[C@@H](C)O` [[PLA^6, D^9]Glucagon(aa6-29)-NH2] (H-[PhLac]TSDYSKYLDSRRAQDFVQWLMNT-NH2): the “Solubility (%, pH 6-8)” value in data set [1] was found to be 11%.
In the case of “[K^5(CH2CH2S-20kDaPEG), E^9]Glucagon(aa5-29)-NH2 (K([CH2CH2S-PEG 20 kDa])FTSEYSKYLDSRRAQDFVQWLMNT-NH2)”, the IC50 in the data set with Glucagon Receptor [2] (setting [4]) is greater than 10000 nM. For the same compound, the “IC50 (nM) (cAMP, inhibit 0.2 mM Glucagon)” value with Glucagon Receptor [3] (Table 12) was “no antagonism”.
Take “[C^8(20kDaPEG), E^9]Glucagon(aa6-29)-NH2 (FTC(PEG 20 kDa)EYSKYLDSRRAQDFVQWLMNT-NH2)”: in the data set with Glucagon Receptor [2] (setting [4]), the IC50 is greater than 1000 nM. In addition, in the data set with Glucagon Receptor [3] (Table 12), the “IC50 (nM) (cAMP, inhibit 0.2 mM Glucagon)” value was “no antagonism”.
For “[d-Cys^5(20kDaPEG), E^9]Glucagon(aa5-29)-NH2 ([dC](PEG 20 kDa)FTSEYSKYLDSRRAQDFVQWLMNT-NH2)”, the IC50 was greater than 10000 nM with Glucagon Receptor [2] (setting [4]) and 14800 nM with Glucagon Receptor [3] (read-out: IC50 (nM) (cAMP, inhibit 0.2 mM Glucagon), Table 12, inhibit 0.2 mM Glucagon).
For the compound “GTFTSEYSKYLDSRRAQDFVQWLMNT-NH2 [[Glu^9]Glucagon(aa4-29)-NH2]”, the IC50 at Glucagon Receptor [2] (setting [5]) stood at 136 ± 17.8 nM; at Glucagon Receptor [2] (read-out: Receptor Binding IC50, Table 4), 136 nM.
For “FTSEYSKYLDSRRAQDFVQWLMNT-NH2 [[Glu^9]Glucagon(aa6-29)-NH2]”, the IC50 on Glucagon Receptor [2] (setting [5]) is 36.4 ± 5.23 nM; at Glucagon Receptor [2] (read-out: IC50 (nM) receptor binding, Table 9) it was 36.4 ± 5.23 nM. In addition, the “cAMP pA2” value at Glucagon Receptor [3] was found to be 7.16 ± 0.27.
In the case of `CSCC[C@H](NC(=O)[C@H](CC(C)C)NC(=O)[C@H](Cc1c[nH]c2ccccc12)NC(=O)[C@H](CCC(N)=O)NC(=O)[C@@H](NC(=O)[C@H](Cc1ccccc1)NC(=O)[C@H](CC(=O)O)NC(=O)[C@H](CCC(N)=O)NC(=O)[C@H](C)NC(=O)[C@H](CCCNC(=N)N)NC(=O)[C@H](CCCNC(=N)N)NC(=O)[C@H](CCC(=O)O)NC(=O)[C@H](CC(=O)O)NC(=O)[C@H](CC(C)C)NC(=O)[C@H](Cc1ccc(O)cc1)NC(=O)[C@H](CCCCN)NC(=O)[C@H](CO)NC(=O)[C@H](Cc1ccc(O)cc1)NC(=O)[C@H](CCC(=O)O)NC(=O)[C@H](CO)NC(=O)[C@@H](NC(=O)[C@@H](O)Cc1ccccc1)[C@@H](C)O)C(C)C)C(=O)N[C@@H](CC(N)=O)C(=O)N[C@H](C(=O)NCC(=O)N1CCC[C@H]1C(=O)N[C@@H](CO)C(=O)N[C@@H](CO)C(=O)NCC(=O)N[C@@H](C)C(=O)N1CCC[C@H]1C(=O)N1CCC[C@H]1C(=O)N1CCC[C@H]1C(=O)N[C@@H](CO)C(N)=O)[C@@H](C)O` [[PLA6, E9, E16]G(6-39)] (H-[PhLac]TSEYSKYLDERRAQDFVQWLMNTGPSSGAPPPS-NH2), the IC50 on Glucagon Receptor [3] (setting [6]) was 58.1 nM. On GLP-1 Receptor (setting [7]), this compound gave a half-maximal effective concentration (EC50) of 1760 nM.
Take `CSCC[C@H](NC(=O)[C@H](CC(C)C)NC(=O)[C@H](Cc1c[nH]c2ccccc12)NC(=O)[C@H](CCC(N)=O)NC(=O)[C@@H](NC(=O)[C@H](Cc1ccccc1)NC(=O)[C@H](CC(=O)O)NC(=O)[C@H](CCCCN)NC(=O)[C@H](C)NC(=O)[C@H](CCCNC(=N)N)NC(=O)[C@H](CCCNC(=N)N)NC(=O)[C@H](CCC(=O)O)NC(=O)[C@H](CC(=O)O)NC(=O)[C@H](CC(C)C)NC(=O)[C@H](Cc1ccc(O)cc1)NC(=O)[C@H](CCCCN)NC(=O)[C@H](CO)NC(=O)[C@H](Cc1ccc(O)cc1)NC(=O)[C@H](CCC(=O)O)NC(=O)[C@H](CO)NC(=O)[C@@H](NC(=O)[C@@H](N)Cc1ccccc1)[C@@H](C)O)C(C)C)C(=O)N[C@@H](CC(N)=O)C(=O)N[C@H](C(=O)NCC(=O)N1CCC[C@H]1C(=O)N[C@@H](CO)C(=O)N[C@@H](CO)C(=O)NCC(=O)N[C@@H](C)C(=O)N1CCC[C@H]1C(=O)N1CCC[C@H]1C(=O)N1CCC[C@H]1C(=O)N[C@@H](CO)C(N)=O)[C@@H](C)O` [[E9, E16, K20] G(6-39)]: the “Glucagon antagonism IC50(nM) (inhibit 0.2-0.8 nM glucagon)” value at Glucagon Receptor [3] (Table 16, combined results of three assays) is reported as “weak agonist”. The compound further displayed an EC50 at GLP-1 Receptor (setting [7]) of 1040 ± 11.9 nM.
Turning to “[E^9, C^24 (20kDaPEG)]Glucagon(aa6-29)-NH2 (FTSEYSKYLDSRRAQDFVC(PEG 20 kDa)WLMNT-NH2)”, the IC50 was greater than 1000 nM with Glucagon Receptor [2] (setting [4]) and greater than 10000 nM with Glucagon Receptor [2] (read-out: IC50 (nM) (Receptor binding), Table 12, listed as [Phe^6, E^9, C^24(20kDaPEG)]Glucagon(aa6-29)-NH2). Also, the “IC50 (nM) (cAMP, inhibit 0.2 mM Glucagon)” value in the data set with Glucagon Receptor [3] (Table 12) is “no antagonism”.
`CSCC[C@H](NC(=O)[C@H](CC(C)C)NC(=O)[C@H](Cc1c[nH]c2ccccc12)NC(=O)[C@H](CCC(N)=O)NC(=O)[C@@H](NC(=O)[C@H](Cc1ccccc1)NC(=O)[C@H](CC(=O)O)NC(=O)[C@H](CCC(N)=O)NC(=O)[C@H](C)NC(=O)[C@H](CCCNC(=N)N)NC(=O)[C@H](CCCNC(=N)N)NC(=O)[C@@H]1CCC(=O)NCCCC[C@H](NC(=O)[C@H](CO)NC(=O)[C@H](Cc2ccc(O)cc2)NC(=O)[C@H](CCC(=O)O)NC(=O)[C@H](CO)NC(=O)[C@@H](NC(=O)[C@@H](N)Cc2ccccc2)[C@@H](C)O)C(=O)N[C@@H](Cc2ccc(O)cc2)C(=O)N[C@@H](CC(C)C)C(=O)N[C@@H](CC(=O)O)C(=O)N1)C(C)C)C(=O)N[C@@H](CC(N)=O)C(=O)N[C@H](C(=O)NCC(=O)N1CCC[C@H]1C(=O)N[C@@H](CO)C(=O)N[C@@H](CO)C(=O)NCC(=O)N[C@@H](C)C(=O)N1CCC[C@H]1C(=O)N1CCC[C@H]1C(=O)N1CCC[C@H]1C(=O)N[C@@H](CO)C(N)=O)[C@@H](C)O` [E9, K12E16(lactam)] (H-FTSEYSKYLDERRAQDFVQWLMNTGPSSGAPPPS-NH2; lactam 7-11; N-terminus assumed): at Glucagon Receptor [3] (Table 13, glucagon antagonist activity, read-out: Glu), the IC50 is 2010 nM. This compound also showed an EC50 at GLP-1 Receptor (GLP-1 (nM), Table 13, GLP-1 agonist activity) of 63 nM.
For the compound `CSCC[C@H](NC(=O)[C@H](CC(C)C)NC(=O)[C@H](Cc1c[nH]c2ccccc12)NC(=O)[C@H](CCC(N)=O)NC(=O)[C@@H](NC(=O)[C@H](Cc1ccccc1)NC(=O)[C@H](CC(=O)O)NC(=O)[C@@H]1CCCCNC(=O)CC[C@H](NC(=O)[C@H](CC(=O)O)NC(=O)[C@H](CC(C)C)NC(=O)[C@H](Cc2ccc(O)cc2)NC(=O)[C@H](CCCCN)NC(=O)[C@H](CO)NC(=O)[C@H](Cc2ccc(O)cc2)NC(=O)[C@H](CCC(=O)O)NC(=O)[C@H](CO)NC(=O)[C@@H](NC(=O)[C@@H](N)Cc2ccccc2)[C@@H](C)O)C(=O)N[C@@H](CCCNC(=N)N)C(=O)N[C@@H](CCCNC(=N)N)C(=O)N[C@@H](C)C(=O)N1)C(C)C)C(=O)N[C@@H](CC(N)=O)C(=O)N[C@H](C(=O)NCC(=O)N1CCC[C@H]1C(=O)N[C@@H](CO)C(=O)N[C@@H](CO)C(=O)NCC(=O)N[C@@H](C)C(=O)N1CCC[C@H]1C(=O)N1CCC[C@H]1C(=O)N1CCC[C@H]1C(=O)N[C@@H](CO)C(N)=O)[C@@H](C)O` [E9, E16K20(lactam)], on Glucagon Receptor [3] (setting [6]), the IC50 amounted to 42 ± 3.6 nM. In addition, at GLP-1 Receptor (setting [7]), the EC50 is 36.4 ± 3.5 nM.
As for `CSCC[C@H](NC(=O)[C@H](CC(C)C)NC(=O)[C@H](Cc1c[nH]c2ccccc12)NC(=O)[C@H](CCC(N)=O)NC(=O)[C@@H](NC(=O)[C@H](Cc1ccccc1)NC(=O)[C@H](CC(=O)O)NC(=O)[C@@H]1CCCCNC(=O)CC[C@H](NC(=O)[C@H](CC(=O)O)NC(=O)[C@H](CC(C)C)NC(=O)[C@H](Cc2ccc(O)cc2)NC(=O)[C@H](CCCCN)NC(=O)[C@H](CO)NC(=O)[C@H](Cc2ccc(O)cc2)NC(=O)[C@H](CCC(=O)O)NC(=O)[C@H](CO)NC(=O)[C@@H](NC(=O)[C@H](Cc2ccccc2)NC(=O)[C@@H](NC(=O)CN)[C@@H](C)O)[C@@H](C)O)C(=O)N[C@@H](CCCNC(=N)N)C(=O)N[C@@H](CCCNC(=N)N)C(=O)N[C@@H](C)C(=O)N1)C(C)C)C(=O)N[C@@H](CC(=O)O)C(=O)N[C@H](C(N)=O)[C@@H](C)O` [[E9, E16K20(lactam), D28]G(4 ~ 29)] (H-GTFTSEYSKYLDERRAKDFVQWLMDT-NH2; lactam 13-17; N-terminus assumed), the IC50 against Glucagon Receptor [3] (Glucagon IC50 (nM), Table 14) is 10 to 30 nM; against Glucagon Receptor [3] (Glucagon antagonism IC50 (nM, inhibit 0.8 nM glucagon), Table 19), 12.7 ± 1.1 nM. In addition, a half-maximal effect at GLP-1 Receptor (GLP-1 agonism EC50 (nM), Table 19) (EC50) was put at 151 ± 8.8 nM.
